Structures can show the parent of a compound that is named as a salt.
Test system: IRF pathway of THP-1
Assay: Test on the activity of IRF pathway of THP-1 (THP1-Dual reporter cells stimulated with 2'3'-cGAMP)
Type: cell-based
Conditions: Homo sapiens, PMA-treated, 2'3'-cGAMP 5 ug/mL, QUANTI-Luc readout, read-out: IC50 of inhibition of the activity of IRF pathway
Procedure: 0.3 uM of PMA (phorbol myristate acetate, SIGMA, P1585) was added to THP1-Dual™ cells (NF-κB-SEAP IRF-Luc Reporter Monocytes, Invivogen, thpd-nfis), and the cells were cultured at 37° C. for 1 day in RPMI1640 with 10% Fetal Bovine Serum (FBS). A compound with a known concentration was added, and the cells were incubated at room temperature for 1 hour. Mammalian (non-canonical) CDN, cyclic [G(2′,5′)pA(3′,5′)p] (2′3′-cGAMP, Invivogen, tlrl-nacga23) was added to a final concentration of 5 ug/mL, and the cells were cultured at 37° C. On the following day, QUANTI-Luc™ (Secreted luciferase detection medium, Invivogen, rep-qlc) was added to the culture solution and the activity of IRF pathway was measured using a microplate reader. The inhibition ratio at each concentration was determined, where the activity of IRF pathway with no addition of the test compound or 2′3′-cGAMP was defined as 100% inhibition and the activity of IRF pathway with no addition of the test compound and with addition of 2′3′-cGAMP was defined as 0% inhibition. The IC50 value was calculated by sigmoid […] model non-linear regression analysis.

| SMILES | IC50 [nM] |
| --- | --- |
| O=C(C#Cc1ccc(-c2ccccc2)c(CN2CCCCC2)c1)N(C[C@@H](O)CO)c1ccccc1 [Example 96, N-[(2R)-2,3-dihydroxypropyl]-N-phenyl-3-{2-[(piperidin-1-yl)methyl][1,1′-biphenyl]-4-yl}prop-2-ynamide] | 80 |
| C#CCOc1ccccc1-c1ccc(C#CC(=O)N2C[C@@H](O)[C@@H](O)C2)cc1C(F)(F)F [Example 129, 1-[(3R,4S)-3,4-dihydroxypyrrolidin-1-yl]-3-{2′-[(prop-2-yn-1-yl)oxy]-2-(trifluoromethyl)[1,1′-biphenyl]-4-yl}prop-2-yn-1-one] | 242 |
| O=C(C#Cc1ccc(-c2ccccc2OC(F)(F)F)c(C(F)(F)F)c1)N1CC(O)(CO)C1 [Example 78] | 51 |
| CN1CCN(C(=O)C#Cc2ccc(-c3ccccc3)cn2)CC1 [Example 4] | 236 |
| O=C(C#Cc1ccc(-c2ccccc2)c(C(F)(F)F)c1)N[C@@H]1C[C@@H](O)[C@@H](O)C1 [Example 107] | 489 |
| O=C(O)CCN1CCN(C(=O)C#Cc2ccc(-c3ccccc3)c(C(F)(F)F)c2)CC1 [Example 91, 3-(4-{3-[2-(trifluoromethyl)[1,1′-biphenyl]-4-yl]prop-2-ynoyl}piperazin-1-yl)propanoic acid monohydrochloride] | 600 |
| NC(=O)[C@@H]1[C@@H](O)CCN1C(=O)C#Cc1ccc(-c2ccccc2)c(C(F)(F)F)c1 [Example 25] | 158 |
| O=C(C#Cc1ccc(-c2ccccc2)c(C(F)(F)F)c1)N1CC[C@H](O)C1 [Example 103] | 402 |
| O=C(C#Cc1ccc(-c2ccccc2)c(C(F)(F)F)c1)N[C@H]1C[C@@H](O)[C@@H](O)C1 [Example 106, N-[(1r,3R,4S)-3,4-dihydroxycyclopentyl]-3-[2-(trifluoromethyl)[1,1′-biphenyl]-4-yl]prop-2-ynamide] | 358 |
| O=C(C#Cc1ccc(-c2ccccc2)c(C(F)(F)F)c1)N1CCSCC1 [Example 22] | 210 |
| CS(=O)(=O)NCCCN(CCO)C(=O)C#Cc1ccc(-c2ccccc2)c(C(F)(F)F)c1 [Example 130, N-(2-hydroxyethyl)-N-{3-[(methanesulfonyl)amino]propyl}-3-[2-(trifluoromethyl)[1,1′-biphenyl]-4-yl]prop-2-ynamide] | 427 |
| O=C(C#Cc1ccc(-c2ccc(OC(F)F)cc2)c(C(F)(F)F)c1)N[C@@H]1COC[C@@H]1O [Example 83] | 430 |
| O=C(C#Cc1ccc(-c2ccccc2)c(C(F)(F)F)c1)N1CCN(C2CC2)CC1 [Example 13] | 1540 |
| CN1CCN(C(=O)C#Cc2ccc(-c3ccncc3)cc2)CC1 [Example 88, 1-(4-methylpiperazin-1-yl)-3-[4-(pyridin-4-yl)phenyl]prop-2-yn-1-one] | 5550 |
| CN(Cc1cc(C#CC(=O)N2C[C@@H](O)[C@@H](O)C2)ccc1-c1ccccc1C(F)(F)F)C1CC1 [Example 123] | 143 |
| O=C(C#Cc1ccc(-c2ccc(OC(F)F)cc2)c(C(F)(F)F)c1)N[C@@H]1COC[C@H]1O [Example 63] | 422 |
| O=C(C#Cc1ccc(-c2ccccc2C(F)(F)F)nn1)N1C[C@@H](O)[C@@H](O)C1 [Example 118] | 838 |
| NS(=O)(=O)c1cccc(NC(=O)C#Cc2ccc(-c3ccccc3)c(C(F)(F)F)c2)c1 [Example 50] | 48 |
| O=C(O)C1CCN(C(=O)C#Cc2ccc(-c3ccccc3)c(C(F)(F)F)c2)C1 (stereo not shown) [Example 94] | 11800 |
| O=C(C#Cc1ccc(-c2ccccc2OC(F)(F)F)c(C(F)(F)F)c1)N[C@H]1COC[C@@H]1O [Example 67] | 38 |

| SMILES | IC50 [nM] |
| --- | --- |
| COc1cc(C#CC(=O)N2C[C@@H](O)[C@@H](O)C2)ccc1-c1ccccc1C(F)(F)F [Example 111] | 1050 |
| O=C(C#Cc1ccc(-c2cccnc2)cc1)N(CCO)c1ccccc1 [Example 89] | 1690 |
| O=C(C#Cc1ccc(-c2ccccc2)c(C(F)(F)F)c1)N[C@@H]1COC[C@H]1O [Example 17] | 233 |
| O=C(C#Cc1ccc(-c2ccccc2OC(F)(F)F)c(C(F)(F)F)c1)N[C@H]1COC[C@H]1O [Example 73] | 99 |
| NC(=O)CNC(=O)C#Cc1ccc(-c2ccccc2)c(C(F)(F)F)c1 [Example 49] | 231 |
| O=C(C#Cc1ccc(-c2cccc(OC(F)F)c2)c(C(F)(F)F)c1)N[C@H]1COC[C@@H]1O [Example 57] | 381 |
| O=C(C#Cc1ccc(-c2ccccc2)c(C(F)(F)F)c1)N1CCN(C2CCS(=O)(=O)C2)CC1 (stereo not shown) [Example 16] | 229 |
| CN1CCN(C(=O)C#Cc2cnn(-c3ccc(C(F)(F)F)cc3)c2)CC1 [Example 95, 1-(4-methylpiperazin-1-yl)-3-{1-[4-(trifluoromethyl)phenyl]-1H-pyrazol-4-yl}prop-2-yn-1-one] | 1440 |
| O=C(C#Cc1ccc(-c2ccc(OC(F)F)cc2)c(C(F)(F)F)c1)N1C[C@@H](O)[C@@H](O)C1 [Example 79] | 185 |
| CN1CCN(C(=O)C#Cc2ccc(-c3ccccc3)c(C(F)(F)F)c2)CC1 [Example 3] | 155 |
| O=C(C#Cc1cnn(-c2ccc(F)cc2)c1C(F)(F)F)N1C[C@@H](O)[C@@H](O)C1 [Example 86] | 8040 |
| O=C(C#Cc1ccc(-c2ccccc2)c(C(F)(F)F)c1)N1CCS(=O)(=O)CC1CO (racemic) [Example 128, rac-(3R)-3-(hydroxymethyl)-4-{3-[2-(trifluoromethyl)[1,1′-biphenyl]-4-yl]prop-2-ynoyl}-1λ^6-thiomorpholine-1,1-dione] | 70 |
| O=C(C#Cc1ccc(-c2cccc(OC(F)F)c2)c(C(F)(F)F)c1)N[C@H]1COC[C@H]1O [Example 82] | 239 |
| O=C(C#Cc1cn(-c2ccc(F)cc2)c(C(F)(F)F)n1)NC[C@H](O)CO [Example 115] | 4940 |
| CN(CC(N)=O)C(=O)C#Cc1ccc(-c2ccccc2)c(C(F)(F)F)c1 [Example 29] | 153 |
| NC(=O)N1CCN(C(=O)C#Cc2ccc(-c3ccccc3)c(C(F)(F)F)c2)CC1 [Example 37] | 195 |
| O=C(C#Cc1ccc(-c2ccccc2C(F)(F)F)c(CO)c1)N1C[C@@H](O)[C@@H](O)C1 [Example 133, 1-[(3R,4S)-3,4-dihydroxypyrrolidin-1-yl]-3-[2-(hydroxymethyl)-2′-(trifluoromethyl)[1,1′-biphenyl]-4-yl]prop-2-yn-1-one] | 731 |
| O=C(O)CCCN1CCN(C(=O)C#Cc2ccc(-c3ccccc3)c(C(F)(F)F)c2)CC1 [Example 93] | 919 |
| O=C(C#Cc1ccc(-c2ccccc2)c(C(F)(F)F)c1)N[C@H]1COC[C@H]1O [Example 60] | 528 |
| N=S1(=O)CCN(C(=O)C#Cc2cnc(-c3ccc(Cl)cc3C(F)(F)F)nc2)CC1 [Example 132] | 179 |

| SMILES | IC50 [nM] |
| --- | --- |
| NC(=O)[C@H]1CCN(C(=O)C#Cc2ccc(-c3ccccc3)c(C(F)(F)F)c2)C1 [Example 27] | 216 |
| CS(=N)(=O)CCNC(=O)C#Cc1ccc(-c2ccccc2)c(C(F)(F)F)c1 (stereo not shown) [Example 125] | 322 |
| O=C(C#Cc1ccc(-c2ccccc2OC(F)(F)F)c(C(F)(F)F)c1)N[C@@H]1COC[C@H]1O [Example 68] | 64 |
| CN1CCN(C(=O)C#Cc2cccc(-c3ccccc3)c2)CC1 [Example 2] | 1090 |
| O=C(O)c1ccc2c(c1)N(C(=O)C#Cc1ccc(-c3ccccc3)c(C(F)(F)F)c1)CC2 [Example 92, 1-{3-[2-(trifluoromethyl)[1,1′-biphenyl]-4-yl]prop-2-ynoyl}-2,3-dihydro-1H-indole-6-carboxylic acid] | 767 |
| O=C(C#Cc1ccc(-c2cccc(OC(F)F)c2)c(C(F)(F)F)c1)N[C@@H]1COC[C@@H]1O [Example 81] | 37 |
| NC(=O)[C@H](CO)NC(=O)C#Cc1ccc(-c2ccccc2)c(C(F)(F)F)c1 [Example 45, N^2-{3-[2-(trifluoromethyl)[1,1′-biphenyl]-4-yl]prop-2-ynoyl}-L-serinamide] | 89 |
| O=C(C#Cc1ccc(-c2ccccc2)c(C(F)(F)F)c1)N[C@H]1COC[C@@H]1O [Example 10] | 182 |
| N[C@@H]1CCN(C(=O)C#Cc2ccc(-c3ccccc3)c(C(F)(F)F)c2)C1 [Example 101] | 190 |
| O=C(C#Cc1ccc(-c2ccccc2)c(C(F)(F)F)c1)N1CCS(=O)(=O)CC1 [Example 38] | 88 |
| NC(=O)[C@H]1CCCN1C(=O)C#Cc1ccc(-c2ccccc2)c(C(F)(F)F)c1 [Example 23] | 91 |
| O=C(C#Cc1ccc(-c2ccccc2)c(C(F)(F)F)c1)N1CCN(C2COC2)CC1 [Example 14] | 374 |
| CC(C)(C)n1cc(-c2ccc(C#CC(=O)N3C[C@@H](O)[C@@H](O)C3)cc2C(F)(F)F)cn1 [Example 105] | 620 |
| O=C(C#Cc1ccc(-c2ccc(OC(F)(F)F)cc2)c(C(F)(F)F)c1)NC[C@@H](O)CO [Example 40] | 422 |
| CN1CCN(C(=O)C#Cc2ccc(-c3ccccc3)nc2)CC1 [Example 5] | 950 |
| CS(=O)(=O)NCCNC(=O)C#Cc1ccc(-c2ccccc2)c(C(F)(F)F)c1 [Example 31] | 115 |
| NC(=O)c1cc(C#CC(=O)N2C[C@@H](O)[C@@H](O)C2)ccc1-c1ccccc1C(F)(F)F [Example 119, 4-{3-[(3R,4S)-3,4-dihydroxypyrrolidin-1-yl]-3-oxoprop-1-yn-1-yl}-2′-(trifluoromethyl)[1,1′-biphenyl]-2-carboxamide] | 5260 |
| CN1CC2(C1)CN(C(=O)C#Cc1ccc(-c3ccccc3)cc1)C2 [Example 102] | 842 |

Source: US11912679B2, “Aryl alkynamide derivatives” (Astellas Pharma, Inc., priority 2022, dated 2024)
